Source: patent US6605424B1, “Method of detecting inhibitors of agonist-specific desensitization” (Duke University, priority 1989, dated 2003)
Values joined by “and” are separate entries in the source; they are usually repeats but may differ in a detail not shown here. Identical values can stand only once. Values belong to the compound of their own block, whether it stands above or below them. Residues, ends and D or L forms follow the SMILES beside them. No end group written: not given here.

Tests used:
βAR kinase [1] = molecular target: T1, βAR kinase (Bos taurus, UniProt P21146); experiment: Phosphorylation of rhodopsin (urea-treated rod outer segments) by βAR kinase; assay type: biochemical, bovine; conditions: for inhibition of βAR kinase: polycations, FIG. 3; for Hill coefficient of inhibition: data of FIG. 1
T1 construct: βAR kinase was purified from bovine cerebral cortex; from tissue; host or cells: bovine cerebral cortex
T1 sequence (P21146 1-689): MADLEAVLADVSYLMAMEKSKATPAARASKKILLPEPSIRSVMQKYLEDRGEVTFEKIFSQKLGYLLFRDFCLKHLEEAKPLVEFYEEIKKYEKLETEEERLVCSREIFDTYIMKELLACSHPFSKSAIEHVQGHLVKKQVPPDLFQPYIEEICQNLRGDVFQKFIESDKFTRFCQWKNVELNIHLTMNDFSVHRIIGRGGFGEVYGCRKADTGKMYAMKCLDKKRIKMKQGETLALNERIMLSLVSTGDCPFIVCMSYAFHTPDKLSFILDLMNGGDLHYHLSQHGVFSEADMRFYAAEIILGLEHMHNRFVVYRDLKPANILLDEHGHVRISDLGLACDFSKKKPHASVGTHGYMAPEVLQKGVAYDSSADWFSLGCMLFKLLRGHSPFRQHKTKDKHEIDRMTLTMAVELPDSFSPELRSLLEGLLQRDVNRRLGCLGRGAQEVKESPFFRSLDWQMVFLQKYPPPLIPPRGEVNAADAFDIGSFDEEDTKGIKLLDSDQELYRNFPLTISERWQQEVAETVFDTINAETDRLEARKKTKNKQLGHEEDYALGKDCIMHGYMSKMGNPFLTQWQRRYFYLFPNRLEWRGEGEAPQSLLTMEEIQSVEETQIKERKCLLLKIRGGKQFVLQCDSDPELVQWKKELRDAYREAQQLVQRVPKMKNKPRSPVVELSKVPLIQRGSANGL
Procedure: βAR kinase was purified from bovine cerebral cortex by modification of procedure of Benovic et al (J. Biol. Chem. (1987) 262:9026-9032). Briefly, 250 g of bovine cerebral cortex were homogenized with a Brinkmann tissue disrupter and centrifuged (40,000×g, 30 min). The supernatant was then precipitated with 13-26% ammonium sulfate. This material was initially chromatographed on a Ultrogel AcA34 column equilibrated with 5 mM Tris-HCl, pH 7.5, 2 mM EDTA, 10 μg/ml leupeptin, 5 μg/ml pepstatin, 10 μg/ml benzamidine, 0.2 mM phenylmethylsulfonyl fluoride (buffer A). The peak activity was diluted with an equal volume of buffer A containing 0.04% Triton X-100 before being applied to a DEAE-Sephacel column. Elution was accomplished with a 0-80 mM NaCl gradient in buffer A containing 0.02% Triton X-100. The peak activity was then applied to a CM-Fractogel column and eluted with a 0-100 mM NaCl gradient in buffer A containing 0.02% Triton X-100. The purified kinase is stable at 4° C. for several months. For these studies the βAR kinase preparations were >75% pure.
Rod outer segments were prepared from bovine retinas by stepwise sucrose gradient centrifugation (Wilden et al Biochemistry (1982) 21:3014-3022). Rhodopsin kinase-free rod outer segments were prepared by treatment with 5 M urea (Shichi et al J. Biol. Chem. (1978) 253:7040-7046) and consisted of ˜95% rhodopsin, as assessed by Coomassie Blue staining of sodium dodecyl sulfate-polyacrylamide gels.
Urea-treated rod outer segments were phosphorylated with βAR kinase as follows. Urea-treated rod outer segments (˜4 μg of rhodopsin) were incubated with βAR kinase (˜0.1 μg) for 10-15 min at 30° C. in the presence of 40 mM Tris-HCl, pH 7.4, 10 mM NaCl, 5 mM MgCl2, 1.5 mM EDTA, and 65 μM ATP (˜1 cpm/fmol) (total reaction volume was 40 μl). Reactions were stopped by the addition of 40 μl of sodium dodecyl sulfate sample buffer (see below) followed by sodium dodecyl sulfate-polyacrylamide gel electrophoresis. After autoradiography, the phosphorylated rhodopsin bands were excised and counted.
Sodium dodecyl sulfate-polyacrylamide gel electrophoresis was performed by the method of Laemmli (Nature (1970) 227:680-685) using 10% homogeneous polyacrylamide slab gels. Sample buffer contained 8% sodium dodecyl sulfate, 10% glycerol, 5% 3-mercaptoethanol, 25 mM Tris-HCl, pH 6.5, and 0.003% bromphenol blue. After electrophoresis, gels were dried with a Bio-Rad gel dryer prior to autoradiography.

βAR kinase [2] = molecular target: T1, βAR kinase; experiment: Inhibition of β2AR phosphorylation by βAR kinase by synthetic peptides (Example III); assay type: biochemical, bovine; conditions: for inhibition of β2AR phosphorylation: tested at ˜0.5 mM
Procedure: FIG. 13. Inhibition of β2AR phosphorylation by synthetic peptides. Reconstituted β2AR (˜0.4 pmol) was incubated for 30 min at 30° with purified βAR kinase (˜30 ng) in the presence of 50 mM Tris-HCl, pH 7.5, 2 mM EDTA, 10 mM NaCl, 5 mM MgCl2, 5 mM sodium phosphate, 50 μM (−)-isoproterenol and 0.10 mM [γ^32P]ATP (2.0 cpm/fmol). Synthetic β2AR peptides were varied from 0 to 1 mM and included CI (Δ), CII (▴), CIII-2 (◯) and CT-1 (●). Reactions were stopped by the addition of […]. ^32P-labeled receptor was determined by cutting and counting the dried gel following autoradiography.
The β2-adrenergic receptor from hamster lung was purified to apparent homogeneity by sequential affinity and high performance liquid chromatography as described (Benovic et al (1984) Biochemistry 23:4510-4518). The purified receptor was reinserted into phosphatidylcholine vesicles as previously described (Cerione et al (1983) Nature 306:562-566). The protein-lipid pellets were resuspended in 20 mM Tris-HCl, pH 7.2, 2 mM EDTA and used as a substrate for the βAR kinase.
βAR kinase was purified from bovine cerebral cortex by modification of a previously described procedure (Benovic et al (1987) J. Biol. Chem. 262:9026-9032). Briefly, 250 g of bovine cortex was homogenized and the resulting high speed supernatant fraction was precipitated with 13-26% ammonium sulfate. This material was initially chromatographed on an Ultrogel AcA34 column equilibrated with 5 mM Tris-HCl, pH 7.5, 2 mM EDTA, 5 μg/ml leupeptin, 5 μg/ml pepstatin, 15 μg/ml benzamidine, 0.2 mM phenylmethyl sulfonyl fluoride (buffer A). The peak activity was diluted 1:1 with buffer A containing 0.02% triton X-100 and applied to a DEAE Sephacel column. Elution was accomplished with a 0-80 mM NaCl gradient in buffer A containing triton X-100. The peak activity was then applied directly to a CM Fractogel column and eluted with a 0-100 mM NaCl gradient in buffer A containing triton X-100. The purified kinase was stored at 4° C.
The inhibition of substrate phosphorylation by βAR kinase in the presence of synthetic peptides was assayed as follows. Reconstituted βAR (0.2-1 pmol/inclubation) was incubated with βAR kinase (10-30 ng) in a buffer containing 50 mM Tris-HCl, pH 7.5, 2 mM EDTA, 10 mM NaCl, 5 mM MgCl2, 5 mM sodium phosphate, 50 μM (−)-isoproterenol, 0.10 mM [γ-^32P]ATP (1-3 cpm/fmol) at 30° C. for 30 min. Synthetic β2AR peptides were varied in concentration from 0 to 2 mM. Reactions were quenched by the addition of SDS sample buffer followed by gel electrophoresis. In some experiments urea treated rod outer segments (Wilden et al (1982) Biochemistry 21:3014-3022; Shichi et al (1978) J. Biol. Chem. 253:7040-7046) were used as the substrate for βAR kinase. To further define the specificity of the peptide inhibition, phosvitin, casein (see Example I) and the synthetic peptides CT-2 and CT-3 were used as substrates for βAR kinase.
SDS polyacrylamide gel electrophoresis was performed by the method of Laemmli (Nature (1970) 227:[…]) using 10 or 15% homogeneous slab gels. SDS sample buffer contained 8% SDS, 10% glycerol, 5% β-mercaptoethanol, 25 mM Tris-HCl, pH 6.5 and 0.003% bromphenol blue. SDS urea polyacrylamide gel electrophoresis was carried out using 6.5 M urea, 0.1% SDS, 100 mM H3PO4, pH 6.8 with Tris-HCl and 9% acrylamide (Swank et al (1971) Anal. Biochem. 39:462). SDS urea sample buffer contained 1% SDS, 8M urea, 10 mM H3PO4, pH 6.8 with Tris-HCl, 1% β-mercaptoethanol and 0.003% bromphenol blue.

[3] = read-out: IC50 (concentration of compound which gave 50% inhibition of βAR kinase), rhodopsin as substrate
[4] = rhodopsin as substrate, mean ± S.E.
[5] = IC50 (concentration of compound which gave 50% inhibition of βAR kinase), rhodopsin as substrate
[6] = IC50 (concentration of compound which gave 50% inhibition of βAR kinase), rhodopsin as substrate, mean ± S.E.
[7] = β2AR as substrate, read-out: IC50 (μM), first intracellular loop peptides as inhibitors of βAR kinase
[8] = hamster β2AR peptides, ND = no significant inhibition at ˜500 μM, read-out: IC50 (μM), inhibition of β2AR phosphorylation by βAR kinase

inhibition of β2AR phosphorylation (βAR kinase [2]): do not inhibit
Compound: CC[C@H](C)[C@H](NC(=O)[C@H](C)NC(=O)[C@H](CCCCN)NC(=O)[C@H](CCC(N)=O)NC(=O)[C@H](Cc1c[nH]cn1)NC(=O)[C@@H](N)[C@@H](C)O)C(=O)N[C@@H](CC(=O)O)C(=O)N[C@@H](CS)C(=O)N[C@@H](Cc1ccc(O)cc1)C(=O)N[C@@H](Cc1c[nH]cn1)C(=O)N[C@@H](CCCCN)C(=O)N[C@@H](CCC(=O)O)C(=O)N[C@H](C(=O)N[C@@H](CS)C(=O)O)[C@@H](C)O [EII (177-190)] (H-THQKAIDCYHKETC-OH; N-terminus and C-terminus assumed)

IC50 (βAR kinase [1]; [3]): 7300 µM
concentration range of inhibition (βAR kinase [1]; rhodopsin as substrate): millimolar range
IC50 (concentration of compound which gave 50% inhibition of βAR kinase) (βAR kinase [1]; [4]): 2800 µg/mL
Compound: O=S(=O)(O)NC1C(O)OC(COS(=O)(=O)O)C(O)C1O (centres unmarked) [Glucosamine 2,6-disulfate, glucosamine 2,6-disulfate]

inhibition of βAR kinase (βAR kinase [1]): weak inhibitors
Compound: NCCCNCCCCNCCCN [Spermine, spermine]

IC50 (βAR kinase [2]; [7]): 88 µM
Compound: AIAAFEALQTVTNYF [β2AR (57-71, K → A, R → A)]

IC50 (βAR kinase [2]; [7]): 2600 µM
Compound: KFERLQT [β2AR (60-66), KFERLQT]

IC50 (βAR kinase [2]; [8]): ~40 µM and 40 µM
IC50 (βAR kinase [2]; [7]): 40 µM
Compound: TAIAKFERLQTVTNYFITS [β2AR (56-74)]

IC50 (concentration of compound which gave 50% inhibition of βAR kinase) (βAR kinase [1]; [4]): 25 µg/mL
Compound: chondroitin sulfate B

IC50 (concentration of compound which gave 50% inhibition of βAR kinase) (βAR kinase [1]; [4]): 6 µg/mL
Compound: chondroitin sulfate C

IC50 (concentration of compound which gave 50% inhibition of βAR kinase) (βAR kinase [1]; [4]): 1.8 µg/mL
Compound: heparan sulfate

IC50 (βAR kinase [1]; [3]): 2 µM
IC50 (concentration of compound which gave 50% inhibition of βAR kinase) (βAR kinase [1]; [4]): 27 ± 2 µg/mL
Compound: polyglutamic acid

More lines, now with the values behind:

Compound: O=C(O)C(COP(=O)(O)O)OP(=O)(O)O (centres unmarked) [2,3-Diphosphoglycerate, 2,3-diphosphoglycerate]
IC50 (βAR kinase [1]; [3]): 1100 µM
concentration range of inhibition (βAR kinase [1]; rhodopsin as substrate): millimolar range
IC50 (concentration of compound which gave 50% inhibition of βAR kinase) (βAR kinase [1]; [4]): 838 µg/mL

Compound: O=P(O)(O)O[C@H]1[C@H](OP(=O)(O)O)[C@@H](OP(=O)(O)O)[C@H](OP(=O)(O)O)[C@@H](OP(=O)(O)O)[C@H]1OP(=O)(O)O [Inositol hexaphosphate, inositol hexaphosphate]
IC50 (βAR kinase [1]; [5]): 3600 µM
IC50 (βAR kinase [1]; [6]): 5040 µM

Compound: O=S(=O)(O)OC1C(OS(=O)(=O)O)C(OS(=O)(=O)O)C(OS(=O)(=O)O)C(OS(=O)(=O)O)C1OS(=O)(=O)O (centres unmarked) [Inositol hexasulfate, inositol hexasulfate]
IC50 (βAR kinase [1]; [5]): 13.5 µM
IC50 (βAR kinase [1]; [6]): 18.2 µM
times more potent than inositol hexaphosphate (βAR kinase [1]; rhodopsin as substrate): ~270 times

Compound: Cc1ncc(COP(=O)(O)O)c(C=O)c1O [Pyridoxal phosphate, pyridoxal phosphate]
IC50 (βAR kinase [1]; [5]): 900 µM
IC50 (βAR kinase [1]; [6]): 898 µM
concentration range of inhibition (βAR kinase [1]; rhodopsin as substrate): millimolar range

Compound: NCCCCNCCCN [spermidine]
inhibition of βAR kinase (βAR kinase [1]): weak inhibitors

Compound: AIAKFERAQTVTAYF [β2AR (57-71, L → A, N → A)]
IC50 (βAR kinase [2]; [7]): 43 µM

Compound: AIAKFQRLQTVTNYF [β2AR (57-71, E → Q), AIAKFORLQTVTNYF]
IC50 (βAR kinase [2]; [7]): 280 µM

Compound: AIAKTPRLQTLTNLF [β1AR]
IC50 (βAR kinase [2]; [7]): 700 µM

Compound: AVFTSRALKAPQNLF [α2AR]
IC50 (βAR kinase [2]; [7]): > 1000 µM

Compound: KMWNFGNFWC [EI (97-106)]
IC50 (βAR kinase [2]; [8]): 300 µM

Compound: SHVPDHDVTEERDEAW [NT (17-32)]
inhibition of β2AR phosphorylation (βAR kinase [2]): do not inhibit

Compound: VTVQHKKLRTPLNYI [Rhodopsin]
IC50 (βAR kinase [2]; [7]): > 1000 µM

Compound: de-N-sulfated heparin
Hill coefficient of inhibition (βAR kinase [1]): ~2
fold weaker than heparin (βAR kinase [1]; rhodopsin as substrate): ~8 fold
IC50 (concentration of compound which gave 50% inhibition of βAR kinase) (βAR kinase [1]; [4]): 6.0 ± 2.4 µg/mL

Compound: dextran sulfate
Hill coefficient of inhibition (βAR kinase [1]): ~2
IC50 (βAR kinase [1]; [3]): 0.15 µM
IC50 (concentration of compound which gave 50% inhibition of βAR kinase) (βAR kinase [1]; [4]): 0.76 ± 0.21 µg/mL

Compound: polyaspartic acid
IC50 (βAR kinase [1]; [3]): 1.3 µM
IC50 (concentration of compound which gave 50% inhibition of βAR kinase) (βAR kinase [1]; [4]): 14 µg/mL
